Columns and labels:
[1] = tested on: HK2 cells; test: Luminescent Cell Viability assay by measuring ATP (CellTiter-Glo 2.0); type: cell-based; conditions: for Cell Survival (Average Lum): Table 5, additional study, 48 h in medium, Control 763 951, W/O AA 565 539
Description: An amino acid blend study was performed using HK2 cell response to evaluate kidney health benefit. The amino acid blend composed glycine, methionine, cysteine, and glutamine. Protocol for Luminescent Cell Viability assay by measuring ATP, a key indicator of cell health is detailed hereafter.
For each experiment, a frozen stock of HK2 cells banked with less than passage 4 was thawed and expanded in normal growing medium in a humidified incubator at 37° C. in 5% CO2. HK2 cells were cultured for a maximum of 3 passages prior to cellular assays and were passaged upon reaching 70-80% confluence, approximately every 3 days.
2500 HK2 cells were seeded in 384 well plate in normal growing medium. 24 h after, cells were starved during 2 hours in HBSS buffer to remove all amino acids traces and then a new medium with specific formulation is added for 48 h incubation: Control medium with all amino acids, Medium without amino acids, Medium with 4 amino acids blend, Medium with all amino acids except 4 amino acids of interest, Medium with glycine only, Medium with methionine only, Medium with cysteine only, Medium with glutamine only, and Medium with cysteine+glutamine only.
Treatment is stopped by adding a CellTiter-Glo® 2.0 assay reagent from Promega to lyse the cells, after 20 min of incubation at room temperature with under slight shaking luminescence level was measured using a luminescent plate reader as an indicator of cell viability. Presence of ATP indicates the presence of metabolically active cells.

[2] = tested on: Complex I (CI) respiration of isolated mitochondria from skeletal muscle; test: Acute oxidative stress (menadione) and mitochondrial high-resolution respirometry; type: in vivo; conditions: adult zebrafish, 3 μM menadione 2 h, then glycine 50, 200, 450 μM or glucose 500 μM and 5 mM in water 2 h at 28° C.; FIG. 3
Description: Adult AB zebrafish of 4-6 months old were exposed in water to acute oxidative stress with 3 μM Menadione (Sigma-Aldrich) incubation for 2 h at 28° C. Following the stress, fish were divided into controls and treatment groups. Controls of the oxidative stress were then incubated in clean water for 2 h at 28° C. […] After BCA quantification of protein concentration, 150 μg of crude extract were used for high-resolution respirometry quantification. The Oxygraph-2k (O2k, OROBOROS Instruments) was used for measurements of respiration. Up to three O2k instruments ([…]) were used in parallel. […] Respiration of isolated mitochondria was determined using substrate-uncoupler-inhibitor titration (SUIT) protocols (Pesta and […], Methods Mol Biol. 2012; 810:25-58) with modifications. Pyruvate, glutammate and malate (5 mM, 10 mM, 2 mM, respectively) were used as substrate to induce Complex I (CI) respiration in presence of ADP (1 mM). […] CI respiration was calculated as the difference between total respiration (CI+CII) and the addition of CI inhibitor rotenone (0.5 μM); CII respiration was calculated as the difference between inhibited CI respiration and the addition of CII inhibitor malonic acid (5 mM). Total respiration (CI+CII, Tot resp) was assessed as the difference of the respiration in presence of all substrates and the total inhibition of CI and CII.

SMILES | Cell Survival (Average Lum) [1] | protective effect on cell survival (in words) ([1]; Table 5 study) | Complex I dependent respiration (O2 consumption of isolated mitochondria) [2]
NC(=O)CC[C@H](N)C(=O)O [glutamine] | 740 156 Lum | performed similarly to the blend | 
NCC(=O)O [glycine] | 620 224 Lum |  | restores Complex I respiratory levels
CSCC[C@H](N)C(=O)O [methionine] | 611 869 Lum |  | 
CC1=CC(=O)c2ccccc2C1=O [menadione, Menadione, reference compound] |  |  | decreasing Complex I dependent respiration
N[C@@H](CS)C(=O)O [cysteine] | 388 041 Lum |  | 
